{
  "source": "patent US20240390453A1",
  "about": "“PEPTIDE HAVING HAIR LOSS PREVENTION OR HAIR GROWTH PROMOTION ACTIVITY, AND USE THEREOF” (CAREGEN CO., LTD., priority 2021, published 2024)",
  "key": {"Keratin 19": {"test_system": "Keratin 19", "assay": "RT-PCR of Keratin 19 expression in HHORSC", "assay_type": "cell-based, human", "settings": "peptide 500 nM, 5 μM, 50 μM, 72 hours, FIG. 6", "experimental": "(§1) Specifically, HHORSC (human hair outer root sheath cell, Sciencell, USA) was seeded in a 6-well culture plate at 4λ10^5 cells/well and then cultured in MSC complete medium (mesenchymal stem cell complete media) for 24 hours. Next, the medium was replaced with serum free MSC complete medium and cultured again for 24 hours. Then, the HHORSC was treated with the peptide of SEQ ID NO: […] in the Preparation Example at concentrations of 500 nM, 5 μM, and 50 μM, respectively, and cultured at 37° C. for 72 hours. As a positive control, EGF was treated at a concentration of 50 nM, and as a negative control, HHORSC without any treatment was used. After washing with PBS, RNA was isolated by treating with 300 μl of easy blue (intron, Korea). Then, cDNA was synthesized using a cDNA synthesis kit (enzynomics, Korea) by quantification using nano drop, and PCR was performed using primers for Ha3-II, Keratin 5, Keratin 14, and Keratin 19 (base sequences of primer are listed in Table 3 below) and PCR premix (enzynomics, Korea). Electrophoresis was performed on a 1.5% agarose gel, and the mRNAs of Ha3-II, Keratin 5, Keratin 14, and Keratin 19 were detected using a band analysis system (Bio-Rad gel image system)."}, "β-catenin": {"test_system": "β-catenin", "assay": "Western blotting of β-catenin moved into the nucleus of HHFDPC", "assay_type": "cell-based, human", "settings": "HHFDPC nuclear protein, peptide 500 nM, 5 µM, and 50 μM, 24 hours, FIG. 3", "experimental": "In addition, in addition to p-AKT and p-ERK, in order to confirm the activation of β-catenin, which is known to affect cell proliferation and differentiation, whether β-catenin moved into the nucleus was confirmed through Western blotting. Specifically, the HHFDPC as in [Experiment Example 1-1] was seeded in a 6-well culture plate at an amount of 4λ10^5 cells/well, cultured in MSC complete medium (mesenchymal stem cell complete media) for 24 hours. Next, the medium was replaced with serum free MSC complete medium and cultured again for 24 hours. Then, the HHFDPC was treated with the peptide of SEQ ID NO: 1 prepared in the Preparation Example at concentrations of 500 nM, […], and 50 μM, respectively, and cultured at 37° C. for 24 hours. As a positive control, minoxidil was treated at a concentration of 1 μM, and as a negative control, HHFDPC without any treatment was used. After washing with PBS, proteins in the nucleus were isolated using a nuclear protein extraction kit (Thermo scientific, USA). After electrophoresis using a 10% SDS-PAGE gel, it was transferred to a PVDF membrane and blocked using 5% skim milk at room temperature for 30 minutes. […] After washing again with 0.1% PBS-T (0.1% Tween-20 in PBS) three times for 15 minutes each, β-catenin was detected by treatment with ECL solution (GE Healthcare, USA)."}, "MSX2": {"test_system": "MSX2", "assay": "RT-PCR of MSX2 expression in HHGMC", "assay_type": "cell-based, human", "settings": "peptide 500 nM, 5 μM, 50 μM, 72 hours, FIG. 7", "experimental": "(§2) Specifically, HHGMC (human hair germinal matrix cell, Sciencell, USA) was seeded in a 6-well culture plate at 4λ10^5 cells/well and then cultured in MSC complete medium (mesenchymal stem cell complete media) for 24 hours. Next, the medium was replaced with serum free MSC complete medium and cultured again for 24 hours. Then, the HHGMC was treated with the peptide of SEQ ID NO: 1 prepared in the Preparation Example at concentrations of 500 nM, 5 μM, and 50 μM, respectively, and cultured at 37° C. for 72 hours. As a positive control, EGF was treated at a concentration of 50 nM, and as a negative control, HHGMC without any treatment was used. After washing with PBS, RNA was isolated by treating with 300 μl of easy blue (intron, Korea). Next, cDNA was synthesized using a cDNA synthesis kit (enzynomics, Korea) by quantification using nano drop, and PCR was performed using primers for MSX2 and FOXN1 (base sequences of primer are listed in Table 4 below) and PCR premix (enzynomics, Korea). Electrophoresis was performed on a 1.5% agarose gel, and mRNA of MSX2 and FOXN1 was detected using a band analysis system (Bio-Rad gel image system)."}, "Keratin 5": {"test_system": "Keratin 5", "assay": "RT-PCR of Keratin 5 expression in HHORSC", "assay_type": "cell-based, human", "settings": "peptide 500 nM, 5 μM, 50 μM, 72 hours, FIG. 6", "experimental": "as §1"}, "LEF-1": {"test_system": "LEF-1", "assay": "RT-PCR of LEF-1 expression in HHFDPC", "assay_type": "cell-based, human", "settings": "peptide 500 nM, 5 μM, 50 μM, 24 hours, FIG. 4", "experimental": "(§3) Furthermore, in order to determine whether the β-catenin moves to the nucleus and is activated to affect cell proliferation and differentiation, whether the expression of LEF-1, c-Myc and cyclin D1 (cyclin D1), which act as downstream factors, increases with β-catenin activation was confirmed through RT-PCR. Specifically, in the same manner as the previous Western blotting experiment, HHFDPC cells were cultured, treated with the peptides of the Preparation Example of the present invention at concentrations of 500 nM, 5 μM, and 50 μM, respectively, and cultured at 37° C. for 24 hours. After washing the cells with PBS, RNA was isolated by treating them with 300 μl of easy blue (intron, Korea). Then, cDNA was synthesized using a cDNA synthesis kit (enzynomics, Korea) by quantifying it with nano drop, and PCR was performed using primers for LEF-1, c-Myc and cyclin D1 (base sequences of the primer are listed in Table 2 below) and PCR premix (enzynomics, Korea). Electrophoresis was performed on a 1.5% agarose gel, and then the mRNA of LEF-1, c-Myc and cyclin D1 was detected using a band analysis system (Bio-Rad gel image system)."}, "p-ERK": {"test_system": "p-ERK", "assay": "Western blotting of phosphorylated ERK in HHFDPC", "assay_type": "cell-based, human", "settings": "peptide 500 nM, 5 μM, and 50 µM, 24 hours, FIG. 2", "experimental": "(§4) First, phosphorylated forms of AKT and ERK, which act as signaling molecules related to the proliferation of HHFDPC, were confirmed through Western blotting. Specifically, HHFDPC as in [Experiment Example 1-1] above was seeded at 4λ10^5 cells/well in a 6-well culture plate, cultured in MSC complete medium (mesenchymal stem cell complete media) for 24 hours, and then the medium was replaced with serum free MSC complete medium and cultured for another 24 hours. Then, the HHFDPC was treated with the peptide of SEQ ID NO: 1 prepared in the Preparation Example at concentrations of 500 nM, 5 μM, and 50 µM, respectively, and cultured at 37° C. for 24 hours. As a positive control, minoxidil was treated at a concentration of 1 μM, and as a negative control, HHFDPC without any treatment was used. Then, Western blotting was performed to detect phosphorylated AKT and phosphorylated ERK. After washing with PBS, the cells were treated with 100 μl of lysis buffer to destroy cells, thereby obtaining cell lysate. After electrophoresis using a 10% SDS-PAGE gel, it was transferred to a PVDF membrane and blocked using 5% skim milk at room temperature for 30 minutes. […] After washing again with 0.1% PBS-T (0.1% Tween-20 in PBS) three times for 15 minutes each, p-AKT and p-ERK were detected by treatment with ECL solution (GE Healthcare, USA)."}, "cyclin D1": {"test_system": "cyclin D1", "assay": "RT-PCR of cyclin D1 expression in HHFDPC", "assay_type": "cell-based, human", "settings": "peptide 500 nM, 5 μM, 50 μM, 24 hours, FIG. 4", "experimental": "as §3"}, "Keratin 14": {"test_system": "Keratin 14", "assay": "RT-PCR of Keratin 14 expression in HHORSC", "assay_type": "cell-based, human", "settings": "peptide 500 nM, 5 μM, 50 μM, 72 hours, FIG. 6", "experimental": "as §1"}, "[1]": {"test_system": "human hair follicle dermal papilla cells (HHFDPC)", "assay": "Proliferation of dermal papilla cells (MTT, absorbance at 540 nm)", "assay_type": "cell-based", "settings": "peptide 500 nM, 72 hours, FIG. 1", "experimental": "While culturing human hair follicle dermal dermal papilla cells (HHFDPC), the absorbance was measured after treatment with the peptide of the present invention to confirm whether there was an effect of promoting the proliferation of the HHFDPC dermal papilla cells.\nSpecifically, HHFDPC (Sciencell, USA) was seeded at 4λ10^3 cells/well in a 96-well culture plate, cultured in MSC complete medium (mesenchymal stem cell complete media, Sciencell, USA) for 24 hours, and then the medium was replaced with serum free MSC complete medium and cultured for another 24 hours. Then, the HHFDPC was treated with the peptide of SEQ ID NO: 1 prepared in the Preparation Example at concentrations of 500 nM, 5 μM, and 50 μM, respectively, and cultured at 37° C. for 72 hours. As a positive control, minoxidil was treated at a concentration of 1 μM, and as a negative control, HHFDPC without any treatment was used. Then, 10 μl of 5 mg/mL MTT solution was added and cultured in a 37° C. CO2 incubator for 4 hours to stain the cells. After removing the medium, the cells were treated with 100 μl of DMSO and shaken for 10 minutes, and the number of HHFDPC cells was confirmed by measuring absorbance at a wavelength of 540 nm using a spectrophotometer."}, "p-AKT": {"test_system": "p-AKT", "assay": "Western blotting of phosphorylated AKT in HHFDPC", "assay_type": "cell-based, human", "settings": "peptide 500 nM, 5 μM, and 50 µM, 24 hours, FIG. 2", "experimental": "as §4"}, "c-Myc": {"test_system": "c-Myc", "assay": "RT-PCR of c-Myc expression in HHFDPC", "assay_type": "cell-based, human", "settings": "peptide 500 nM, 5 μM, 50 μM, 24 hours, FIG. 4", "experimental": "as §3"}, "Ha3-II": {"test_system": "Ha3-II", "assay": "RT-PCR of Ha3-II expression in HHORSC", "assay_type": "cell-based, human", "settings": "peptide 500 nM, 5 μM, 50 μM, 72 hours, FIG. 6", "experimental": "as §1"}, "[2]": {"test_system": "DKK-1 protein (dickkopf-related protein 1)", "assay": "Western blotting of DKK-1 protein in DHT-treated HHFDPC", "assay_type": "cell-based, human", "settings": "HHFDPC with DHT 100 nM, peptide 500 nM, 5 μM, 50 μM, 24 hours, FIG. 5", "experimental": "DKK-1 protein (dickkopf-related protein 1) is a hair loss-related protein known to be highly expressed in individuals with hair loss, especially male pattern hair loss, and its expression is known to be promoted by hormones such as DHT (Dihydrotestosterone). Accordingly, the expression of DKK-1 protein was induced by treating HHFDPC cells with DHT together with the peptide according to the Preparation Example of the present invention, and then the expression level of DKK-1 was measured through Western blotting to determine whether there was an effect of suppressing the expression of DKK-1 protein.\nSpecifically, HHFDPC as in [Experiment Example 1-1] was seeded in a 6-well culture plate at 4λ10^5 cells/well and then cultured in MSC complete medium (mesenchymal stem cell complete media) for 24 hours. Next, the medium was replaced with serum free MSC complete medium and cultured again for 24 hours. In addition, the HHFDPC was treated with the peptide of SEQ ID NO: 1 prepared in the Preparation Example at concentrations of 500 nM, 5 μM, and 50 μM, respectively, and at this time, DHT, an expression inducer of DKK-1 protein, was simultaneously treated at a concentration of 100 nM and then cultured at 37° C. for 24 hours. […] After washing again with 0.1% PBS-T (0.1% Tween-20 in PBS) three times for 15 minutes each, DKK-1 protein was detected by treatment with ECL solution (GE Healthcare, USA)."}, "FOXN1": {"test_system": "FOXN1", "assay": "RT-PCR of FOXN1 expression in HHGMC", "assay_type": "cell-based, human", "settings": "peptide 500 nM, 5 μM, 50 μM, 72 hours, FIG. 7", "experimental": "as §2"}},
  "data": [
    {"substance": "HLPKPI [peptide of the present invention]", "values": [
      {"measurement": "amount of Keratin 19 mRNA compared to the control group without treatment", "setting": "Keratin 19", "result": "increased further"},
      {"measurement": "concentration dependence of β-catenin activation", "setting": "β-catenin", "result": "further promoted depending on the concentration"},
      {"measurement": "migration of β-catenin to the nucleus due to activation, compared to the control group not treated with the peptide", "setting": "β-catenin; Western blotting", "result": "increased"},
      {"measurement": "amount of MSX2 mRNA compared to the untreated control group", "setting": "MSX2", "result": "increased further"},
      {"measurement": "amount of Keratin 5 mRNA compared to the control group without treatment", "setting": "Keratin 5", "result": "increased further"},
      {"measurement": "amount of LEF-1 mRNA compared to the control group without any treatment", "setting": "LEF-1", "result": "increased further"},
      {"measurement": "phosphorylation of ERK (p-ERK) compared to the control group not treated with the peptide", "setting": "p-ERK", "result": "increased"},
      {"measurement": "amount of cyclin D1 mRNA compared to the control group without any treatment", "setting": "cyclin D1", "result": "increased further"},
      {"measurement": "amount of Keratin 14 mRNA compared to the control group without treatment", "setting": "Keratin 14", "result": "increased further"},
      {"measurement": "absorbance (number of HHFDPC cells, proliferation) compared to the untreated control group", "setting": "[1]; 5 μM, 50 μM, MTT, 540 nm", "result": "higher"},
      {"measurement": "proliferation promotion effect compared to the positive control group", "setting": "[1]; 5 μM, and 50 μM vs minoxidil 1 μM", "result": "better proliferation promotion effect than the positive control group"},
      {"measurement": "phosphorylation of AKT (p-AKT) compared to the control group not treated with the peptide", "setting": "p-AKT", "result": "increased"},
      {"measurement": "amount of c-Myc mRNA compared to the control group without any treatment", "setting": "c-Myc", "result": "increased further"},
      {"measurement": "amount of Ha3-II mRNA compared to the control group without treatment", "setting": "Ha3-II", "result": "increased further"},
      {"measurement": "concentration dependence of the decrease of DHT-increased DKK-1 expression", "setting": "[2]", "result": "decreased again depending on the concentration"},
      {"measurement": "amount of DKK-1 protein compared to the negative control group (DHT only)", "setting": "[2]; Western blotting", "result": "reduced"},
      {"measurement": "amount of FOXN1 mRNA compared to the untreated control group", "setting": "FOXN1", "result": "increased further"}
    ]}
  ]
}
